# Results published in US20260217656A1, “Compounds Affecting KRAS” (UNIVERSITAT DE BARCELONA, priority 2022, published 2026).
# “Also recorded” adds a separate entry of the source.
# Tested on: Ras effectors ERK and AKT in DLD-1 cells
# Experiment: Western blot of downstream RAS signaling (P-ERK, P-AKT, P-MEK) in serum-starved DLD-1 cells
# Format: cell-based, human
# From the text: DLD-1 (KRASWT/G13D) (clone V15, #HD PAR-086) colorectal adenocarcinoma cell line and DLD-1 knockout of mutant KRAS allele, DLD-1 KO (KRASWT/−) (clone DWT7, #HD105-002), were obtained from Horizon Discovery Ltd. (Cambridge, UK). hTERT-RPE (KRASWT/WT) immortalized retinal pigment epithelial human cell line was obtained from the […] (ATCC). DLD-1 KO cells stably expressing HA-KRAS G12V were previously generated in our laboratory (Cabot et al., 2021). All cells were grown in DMEM-HAM s F12 (1:1) supplemented with 10% foetal bovine serum (Biological Industries, Israel), penicillin, streptomycin, and nonessential amino acids. Cells were tested once per month for mycoplasma contamination.
# Cells were seeded in a media containing 10% FBS for 24 hours and then they were serum starved (0.1% FBS) for the next 24 hours. Afterwards, they were incubated with the different compounds during the times specified in each figure. When indicated, also in order to activate downstream KRAS cell signalling, treatment for 10 minutes with EGF (50 ng/mL) (Sigma-Aldrich) was performed.
# Proteins were resolved by SDS-PAGE, transferred onto PVDF membranes (Immobilon-P, Millipore) and Western blot was performed as previously described (Cabot et al, Oncogene 2021). The following primary antibodies were used: anti-c-RAF (BD Transduction 610151, 1:500); anti-phospho-c-RAF S338 (Cell Signaling 9427, 1:500); anti-AKT (Cell Signaling 9272, 1:1000); anti-phospho-AKT T308 (Cell Signaling 4056, 1:1000); anti-phospho-MEK1/2 S221 (Cell Signalling […]); anti-p44/42 MAPK (ERK1/2) (Cell Signaling 9102, 1:2000); anti-phospho-p44/42 MAPK(ERK1/2) T202/Y204 (Cell Signaling 4370, 1:2000); anti-HA (Sigma-Aldrich H6908, 1:1000); anti-cleaved-caspase-3 (Asp175) (Cell Signaling 9661, 1:1000); HRP-coupled secondary antibodies used: goat anti-rabbit (BioRad 170-6515, 1:3000) or goat anti-mouse (BioRad 170 6516, 1:3000).
# For analysis of RAS signalling, cells were lysed in a buffer containing 67 mM Tris-HCl pH 6.8 and 2% SDS and then the samples were heated at 97° C. for 15 minutes. Protein concentration of the lysates was assessed using the Lowry method. An aliquot of […] of protein per sample was loaded onto the gels.
# We first analyzed the effect of P14 on the activation of downstream RAS signaling pathways (RAF/MEK/ERK and PI3K/AKT) in DLD-1 cells (CRC cells carrying one oncogenic KRAS allele). To this end, DLD-1 serum-starved cells (0.1% FCS) were treated with P14 (100 μM) at different times, and activation of AKT and ERK was evaluated by Western blot. […] As a 3-hour treatment was associated with major effects, we chose this duration for the subsequent experiments with the other compounds. Next, DLD-1 serum-starved cells were treated with P14A-P14C at 100 μM for 3 hours and activation of AKT and ERK was assessed as above. […] The kinetics of RAS downstream signaling was analyzed in P14B-treated cells compared to 10% FBS serum.
# [1] = DLD-1 serum-starved cells, 100 μM, 3 hours
# [2] = DLD-1 starved cells, time course 15 min to 6 hours
structure (smiles),measurement,setting,value
COc1ccc(C(c2c(C)n[nH]c2O)c2c(C)n[nH]c2O)cc1Oc1ccc([N+](=O)[O-])cc1 [Example P14B],AKT and ERK phosphorylation,"DLD-1 serum-starved cells (0.1% FCS), 100 μM",dramatically increased; also recorded: increases endogenous downstream RAS signaling
same,activation of AKT and ERK,[1],activated AKT and ERK kinases; also recorded: increase AKT and/or ERK signalling
same,relative capacity to activate Ras effectors ERK and AKT among the compounds,[1],most efficient; also recorded: greatest capacity to activate Ras signaling; also recorded: highest activation of both Ras effectors
same,duration of ERK phosphorylation compared with 10% FBS,[2],maintained for a longer time; also recorded: more sustained
same,onset of ERK and MEK activation compared with 10% FBS,[2],clearly delayed
